# Experimental data as given in patent US20160038490A1, “COMPOSITIONS AND METHODS FOR TREATING DYSPROLIFERATIVE DISEASES” (ANGION BIOMEDICA CORP., priority 2012, published 2016).
# Read-outs that look alike come from different tables or passages of the source.
# Tests used:
# SK-BR-3 cells [1] = assay: Cell proliferation, Cell Titer Glo, checkerboard design; assay type: cell-based; settings: for EC50: Homo sapiens
# Description: The effect of all-trans retinoic acid (ATRA), a CYP26 inhibitor and their combination was studied using two HER2+ RARA+ breast cancer cell lines: AU565 and SK-BR-3. Cells were plated in a 96-well plate and treated with compounds in a “checkerboard” design. After 7 days the cell proliferation was determined using the Cell Titer Glo reagent (Promega).
# (§1) This provides a strong rationale for the simultaneous targeting of both signaling pathways in breast cancer patients.
# SK-BR-3 cells [2] = assay: Apoptosis assay (Caspase 3/7 assay); assay type: cell-based
# Source text: as §1
# SK-BR-3 cells [3] = assay: ATRA metabolism in breast cancer cells; assay type: cell-based; settings: 2×10^6 SK-BR-3 cells treated with 100 nM ATRA, no CYP26 inhibitor
# Description: To directly test whether ATRA induces its own metabolism, we treated 2×10^6 SK-BR-3 cells with 100 nM ATRA and determined the ATRA concentration after 24 hours. Significant metabolism of ATRA was found (FIG. 4), with the ATRA concentration dropping to 6 nM after 24 hrs.
# [4] = system: SK-BR-3 breast cancer cells; assay: Breast cancer xenograft study; settings: SK-BR-3 xenograft, immuno-compromised mice; CYP26 inhibitor 10 mg/kg po qd×5, Lapatinib 100 mg/kg po qd×5; compared to vehicle
# Description: Once palpable tumors were established in immuno-compromised mice, animals were randomized to four treatment groups: (1) Vehicle, (2) CYP26 inhibitor (10 mg/kg, po, qd×5), (3) the EGFR/HER2 inhibitor Lapatinib (100 mg/kg, po, qd×5) or (4) the combination of the two (10 mg/kg CYP26 inhibitor and 100 mg/kg Lapatinib).
"EC50 (SK-BR-3 cells [1]; 168 h, SK-BR-3, 7 days, ATRA alone, estimated, read-out: EC50, inhibition of cell growth)",ATRA concentration after 24 hours (SK-BR-3 cells [3]),"EC50 (SK-BR-3 cells [1]; SK-BR-3, lapatinib alone, read-out: EC50, inhibition of cell growth in the absence of ATRA)",Structure (SMILES),"effect on cell growth (SK-BR-3 cells [1]; SK-BR-3, lapatinib/ATRA experiment)","effect on Caspase 3/7 activity (SK-BR-3 cells [2]; SK-BR-3, synergy analyzed with Bliss additivity model)",tumor progression / tumor growth inhibition [4],"induction of Caspase 3/7 activity (SK-BR-3 cells [2]; SK-BR-3, 24 hours incubation, absence of ATRA)"
~40 nM,6 nM,,"CC1=C(/C=C/C(C)=C/C=C/C(C)=C/C(=O)O)C(C)(C)CCC1 [ATRA, all-trans retinoic acid]",inhibited breast cancer cell growth,small effect,,
,,64 nM,CS(=O)(=O)CCNCc1ccc(-c2ccc3ncnc(Nc4ccc(OCc5cccc(F)c5)c(Cl)c4)c3c2)o1 [lapatinib],,,Markedly reduced tumor progression,~2 fold
